Values of other authors as cited in patent publication US5691323A, “Muscarine antagonists” (Merck & Co., Inc., priority 1995, dated 1997).

What was measured:
[1] = tested on: smooth muscle (ordinarily called M3 type); conditions: background
[2] = background statement
[3] = tested on: axial elongation; conditions: background
[4] = tested on: pupil; conditions: background

In the case of `C[N+]1(C)CCC(OC(=O)C(c2ccccc2)c2ccccc2)CC1` [Example 4-DAMP, 4-diphenylacetoxy-N-methylpiperadine methiodide], the “Selectivity for smooth muscle (M3 type) receptors” value [1] is given as “relatively selective antagonist for smooth muscle”.
For `CN1CCN(CC(=O)N2c3ccccc3C(=O)Nc3cccnc32)CC1` [Pirenzepine], the Sensitization assay result [2] is listed as “positive”, the “Effect on axial elongation / enlargement of the eye” value [3] is listed as “inhibits axial elongation” and the “Pupil dilation (mydriasis)” value [4] is listed as “far less effective at pupil dilation than atropine”.
In the case of `CN1CCc2cccc3c2[C@H]1Cc1ccc(O)c(O)c1-3` [apomorphine], the “Effect on axial elongation / enlargement of the eye” value [3] is given as “inhibit or actually prevent the axial enlargement of the eye”.
For `CN1[C@@H]2CC[C@H]1C[C@@H](OC(=O)C(CO)c1ccccc1)C2` (stereo partly shown) [atropine], the Sensitization assay result [2] is given as “positive” and the “Pupil dilation (mydriasis)” value [4] is given as “causes mydriasis”.
